Reference: US11208404B2 (PERENNA PHARMACEUTICALS, INC., priority 2017, dated 2021)
Read-outs that look alike come from different tables or passages of the source.

Target: ALCAT1 (Homo sapiens (Human), UniProt Q6UWP7)
Assay: In vitro acyltransferase assay for ALCAT1 inhibitors
Type: biochemical
Settings: for inhibition at 1 µM / % inh @ 1 μM: 1 μM compound; for inhibition at 1 µM / inhibition at 10 µM / % inh @ 1 μM: in vitro enzymatic assay; for inhibition at 10 µM: 10 μM compound; for IC50: ALCAT1 enzyme activity
From the text: The human ALCAT1 protein were expressed in Spodoptera frugiperda (Sf9) insect cells by using a Bac-to-Bac baculovirus expression system (Invitrogen) according to the manufacturer's instruction. High-titer recombinant baculovirus expressing the human ALCAT1 protein was generated by several rounds of viral amplification. The Sf9 cells were typically infected with recombinant baculovirus for 3 days, harvested in ice-cold phosphate-buffered saline (PBS), and homogenized in 20 mm NaCl by going through French press. The total cell lysates were centrifuged at 10,000×g for 1 hours at 4° C. to eliminate the nucleus fraction, followed by ultracentrifugation at 100,000×g to pallet the membrane fraction. The membrane fraction was resuspended in enzymatic buffer that contain 10% glycerol, quantified for protein concentration, aliquoted, and stored at −80° C.
ALCAT1 enzymatic activity was determined by measuring the conversion of monolysocardiolipin (MLCL) to cardiolipin or lysophosphatidylglycerol (LPG) to phosphatidylglycerol (PG) in an enzymatic reaction mixture that contained 50 mm Tris/HCl, pH 7.0, 100 μm lysophospholipids, 25 μm [^14C]acyl-CoA (50 mCi/mmol, American Radiolabeled Chemicals, Inc), and membrane fraction (0.5-2.5 μg) in a total volume of 200 μl. The reaction was incubated at room temperature for 30 min. The lipids were extracted will chloroform, dried, and separated by thin layer chromatography (TLC) with chloroform:hexane:methanol:acetic acid (50:30:10:5, v/v) or chloroform:methanol:water (65:25:4, v/v). After separation, TLC plates were exposed to a Phosphorlmager screen to visualize the radiolabeled products with a Molecular Dynamics Typhoon Scanner (Sunnyvale, Calif.). In some experiments, NBD-CoA was used at 100 μM to replace the [^14C]acyl-CoA in the enzymatic reaction. All quantitative data were expressed as mean±S.E. Statistical analyses for differences between two groups were carried out using a Student's t test.
Compound inhibitors for ALCAT1 enzyme were analyzed by an in vitro enzymatic assay as detailed above. Compound inhibitors were added to the enzymatic mixture at 1-20 μM concentrations before the start of the acyltransferase reaction.
Where multiple measurements were taken this is indicated by a “/” between multiple values.
IC50 values for each compound were analyzed in triplicates, and calculated by GraphPad software.

[1] = triplicates, GraphPad, read-out: IC50

ALCAT1, sequence (Q6UWP7 whole entry): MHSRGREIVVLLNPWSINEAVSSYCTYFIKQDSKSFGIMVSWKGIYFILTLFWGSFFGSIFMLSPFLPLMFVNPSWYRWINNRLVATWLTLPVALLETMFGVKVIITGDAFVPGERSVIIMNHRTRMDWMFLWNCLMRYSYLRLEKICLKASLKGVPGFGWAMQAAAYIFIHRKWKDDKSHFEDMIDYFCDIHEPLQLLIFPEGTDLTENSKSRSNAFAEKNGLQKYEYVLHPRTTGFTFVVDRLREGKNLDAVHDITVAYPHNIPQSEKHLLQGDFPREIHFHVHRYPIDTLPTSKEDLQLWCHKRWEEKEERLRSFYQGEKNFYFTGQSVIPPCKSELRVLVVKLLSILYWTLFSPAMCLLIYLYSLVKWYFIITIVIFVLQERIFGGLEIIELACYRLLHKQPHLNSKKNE

SMILES | inhibition at 1 µM [%] | inhibition at 10 µM [%] | IC50 [1] [nM] | IC50 (read-out: IC50 values (upper bounds)) [nM] | % inh @ 1 μM [%]
COC(=O)c1ccc(OC)c(C(=O)Nc2cccc(-c3nnc(-c4ccco4)o3)c2)c1 [Compound 115] | 51 | 53 |  |  | 
CCCOc1ccc(Br)cc1C(=O)Nc1cccc(-c2nnc(-c3ccco3)o2)c1 [Compound 119, 5-Bromo-N-(3-(5-(furan-2-yl)-1,3,4-oxadiazol-2-yl)phenyl)-2-propoxybenzamide] | 92 | 95 | 90 |  | 
COc1ccc(Br)cc1C(=O)Nc1cccc(-c2nnc(-c3ccco3)o2)c1 [Compound 120, 5-Bromo-N-(3-(5-(furan-2-yl)-1,3,4-oxadiazol-2-yl)phenyl)-2-methoxybenzamide] | 94 | 100 | 38 |  | 
CCOc1ccc(Cl)cc1C(=O)Nc1cccc(-c2nnc(-c3ccco3)o2)c1 [Compound 122, 5-Chloro-2-ethoxy-N-(3-(5-(furan-2-yl)-1,3,4-oxadiazol-2-yl)phenyl)benzamide] | 100 | 100 | 39 |  | 
CCCOc1ccc(Cl)cc1C(=O)Nc1cccc(-c2nnc(-c3ccco3)o2)c1 [Compound 123, 5-Chloro-N-(3-(5-(furan-2-yl)-1,3,4-oxadiazol-2-yl)phenyl)-2-propoxybenzamide] | 90 | 100 | 87 |  | 
COc1ccccc1C(=O)Nc1cc(-c2nnc(-c3ccco3)o2)ccc1F [Compound 128, N-(2-Fluoro-5-(5-(furan-2-yl)-1,3,4-oxadiazol-2-yl)phenyl)-2-methoxybenzamide] | 100 | 100 | 29 | < 100 | 
O=C(Nc1cc(F)cc(-c2nnc(-c3ccco3)o2)c1)c1ccccc1F [Compound 130] | 50 |  |  |  | 57
COc1cc(NC(=O)c2ccccc2F)cc(-c2nnc(-c3ccco3)o2)c1 [Compound 133] | 19 |  |  |  | 17
O=C(Nc1cccc(-c2nnc(-c3ccco3)s2)c1)c1ccccc1F [Compound 135] | 56 |  |  |  | 62
COc1ccc(NC(=O)c2ccccc2F)cc1-c1nnc(-c2ccco2)o1 [Compound 136] | 28 |  |  |  | 23
O=C(Nc1cccc(-c2nnc(-c3cnco3)o2)c1)c1ccccc1F [Compound 137] | 37 |  |  |  | 48
O=C(Nc1cc(-c2nnc(-c3ccno3)o2)ccc1F)c1ccccc1F [Compound 139] | 50 |  |  |  | 48
COc1c(NC(=O)c2ccccc2F)cccc1-c1nnc(-c2ccco2)o1 [Compound 140] | 29 |  |  |  | 
O=C(Nc1cccc(-c2nnc(-c3ccco3)o2)c1)c1c(F)cccc1F [Compound 143] | 13 | 17 |  |  | 
O=C(Nc1cccc(-c2nnc(-c3ccco3)o2)c1)c1c(F)cccc1Cl [Compound 145] | 9 | 38 |  |  | 
COc1cccc(C(=O)Nc2cccc(-c3nnc(-c4ccco4)o3)c2)c1OC [Compound 169] | 74 | 93 | 470 |  | 
COc1ccc(OC)c(C(=O)Nc2cccc(-c3nnc(-c4ccco4)o3)c2)c1 [Compound 171] | 79 | 100 | 350 |  | 
CC(=O)Nc1ccccc1C(=O)Nc1cccc(-c2nnc(-c3ccco3)o2)c1 [Compound 172] | 6 | 26 |  |  | 
CCCOc1ccccc1C(=O)Nc1cccc(-c2nnc(-c3ccco3)o2)c1 [Compound 175] | 90 | 100 | 150 |  | 
Cc1ccc(F)c(C(=O)Nc2cccc(-c3nnc(-c4ccco4)o3)c2)c1 [Compound 176] | 73 | 100 | 220 |  | 
O=C(Nc1cccc(-c2nnc(-c3ccco3)o2)c1)c1ccc2c(c1)OCO2 [Compound 177] | 3 | 1 |  |  | 
O=C(Nc1cccc(-c2nnc(-c3ccco3)o2)c1)c1cccc2c1OCO2 [Compound 178] | 27 |  |  |  | 
COc1c(C)cccc1C(=O)Nc1cccc(-c2nnc(-c3ccco3)o2)c1 [Compound 182] | 33 |  |  |  | 
O=C(Nc1cccc(-c2nnc(-c3ccco3)o2)c1)c1cccc(Cl)c1F [Compound 186] | 92 | 100 | 390 |  | 
O=C(Nc1cccc(-c2nnc(-c3ccco3)o2)c1)c1cc(Br)ccc1F [Compound 188] | 93 | 100 | 640 |  | 
O=C(Nc1cccc(-c2nnc(-c3ccco3)o2)c1)c1cc(Cl)ccc1F [Compound 189] | 92 | 100 | 320 |  | 
Cc1cccc(C(=O)Nc2cccc(-c3nnc(-c4ccco4)o3)c2)c1F [Compound 190] | 80 | 100 | 290 |  | 

Other lines, results leading:

inhibition at 1 µM [%] | inhibition at 10 µM [%] | IC50 [1] [nM] | IC50 (read-out: IC50 values (upper bounds)) [nM] | % inh @ 1 μM [%] | SMILES
92 | 100 | 62 |  |  | COc1ccc(Cl)cc1C(=O)Nc1cccc(-c2nnc(-c3ccco3)o2)c1 [Compound 124, 5-Chloro-N-(3-(5-(furan-2-yl)-1,3,4-oxadiazol-2-yl)phenyl)-2-methoxybenzamide]
92 | 97 | 67 |  |  | CCOc1ccc(F)cc1C(=O)Nc1cccc(-c2nnc(-c3ccco3)o2)c1 [Compound 125, 2-Ethoxy-5-fluoro-N-(3-(5-(furan-2-yl)-1,3,4-oxadiazol-2-yl)phenyl)benzamide]
83 | 100 | 110 |  |  | CCCOc1ccc(F)cc1C(=O)Nc1cccc(-c2nnc(-c3ccco3)o2)c1 [Compound 126]
85 | 100 | 210 |  |  | COc1ccc(F)cc1C(=O)Nc1cccc(-c2nnc(-c3ccco3)o2)c1 [Compound 127]
26 |  |  |  | 39 | Cc1cc(NC(=O)c2ccccc2F)cc(-c2nnc(-c3ccco3)o2)c1 [Compound 132]
65 | 67 |  |  |  | O=C(Nc1cccc(-c2nnc(-c3ccco3)o2)c1)c1cc(Br)ccc1I [Compound 141]
73 | 92 | 130 |  |  | O=C(Nc1cccc(-c2nnc(-c3ccco3)o2)c1)c1cc(F)c(F)cc1F [Compound 144]
72 | 92 | 410 |  |  | O=C(Nc1cccc(-c2nnc(-c3ccco3)o2)c1)c1cccc(Cl)c1Cl [Compound 150]
20 | 27 |  |  |  | COc1cccc(OC)c1C(=O)Nc1cccc(-c2nnc(-c3ccco3)o2)c1 [Compound 170]
96 | 100 | 110 |  |  | CCOc1ccccc1C(=O)Nc1cccc(-c2nnc(-c3ccco3)o2)c1 [Compound 174]
17 | 41 |  |  |  | COc1cccc(F)c1C(=O)Nc1cccc(-c2nnc(-c3ccco3)o2)c1 [Compound 179]
34 | 68 |  |  |  | CSc1ccccc1C(=O)Nc1cccc(-c2nnc(-c3ccco3)o2)c1 [Compound 181]
